Experimental findings from ChEMBL document CHEMBL1641432, “Design and synthesis of 3-pyridylacetamide derivatives as dipeptidyl peptidase IV (DPP-4) inhibitors targeting a bidentate interaction with Arg125” (Bioorg Med Chem, 2011) are described below.

The target in one series is Dipeptidyl peptidase 2 (Rattus norvegicus, UniProt Q9EPB1). Put plainly: Inhibition of rat kidney DDP2 after 60 mins by spectrophotometry.
Another series addresses Dipeptidyl peptidase 8 (Homo sapiens, UniProt Q6V1X1). As to the kind of experiment: Inhibition of human DDP8 expressed in HEK293-F cells after 90 mins by spectrophotometry. In kind it is cell-based.
Series [1] concerns Canis familiaris. As to the kind of experiment: Ex vivo inhibition of DDP4 in dog plasma at 0.5 mg/kg, po after 24 hrs. The series is classed as functional. As to conditions: Canis lupus familiaris.
Series [2] is described as follows: Mean residence time in rat at 1 mg/kg, po by LC/MS/MS analysis. As to conditions: in vivo. The series is classed as ADME, organism-based. The arrangement: dose 1 mg/kg, route oral.
Series [3] in a line: Mean residence time in dog at 1 mg/kg, po by LC/MS/MS analysis. In kind it is ADME, organism-based, Canis lupus familiaris. Also on record: dose 1 mg/kg, route oral. Conditions: in vivo.
The nature of series [4]: Bioavailability in rat at 0.1 mg/kg, iv and 1 mg/kg, po by LC/MS/MS analysis. In kind it is ADME, organism-based. Conditions: in vivo.
A short description of series [5]: Bioavailability in dog at 0.1 mg/kg, iv and 1 mg/kg, po by LC/MS/MS analysis. In kind it is ADME, organism-based, Canis lupus familiaris. Conditions: in vivo.
Series [6] is described as follows: Metabolic stability in rat hepatic microsomes assessed per mg of protein at 1 uM. In kind it is ADME, Liver.
Series [7] in a line: Metabolic stability in dog hepatic microsomes assessed per mg of protein at 1 uM. In kind it is ADME, Canis lupus familiaris, Liver.
Series [8] can be described thus: Metabolic stability in human hepatic microsomes assessed per mg of protein at 1 uM. In kind it is ADME, Liver.
The nature of series [9]: Solubility of the compound at pH 1.2 after 2 hrs. The series is classed as physicochemical. As to conditions: buffer.
Series [10] is described as follows: Solubility of the compound at pH 6.8 after 2 hrs. The series is classed as physicochemical. Conditions: buffer.
The species named for series [11] is Canis familiaris. As to conditions: Canis lupus familiaris; Plasma; 0.5 mg/kg.
Description: Ex vivo inhibition of DDP4 in dog plasma at 0.5 mg/kg, po up to 1 hr

Calls of active or inactive are those of the source. The rule behind the calls is not given here.

Sequence of Dipeptidyl peptidase 2 (Q9EPB1 whole entry): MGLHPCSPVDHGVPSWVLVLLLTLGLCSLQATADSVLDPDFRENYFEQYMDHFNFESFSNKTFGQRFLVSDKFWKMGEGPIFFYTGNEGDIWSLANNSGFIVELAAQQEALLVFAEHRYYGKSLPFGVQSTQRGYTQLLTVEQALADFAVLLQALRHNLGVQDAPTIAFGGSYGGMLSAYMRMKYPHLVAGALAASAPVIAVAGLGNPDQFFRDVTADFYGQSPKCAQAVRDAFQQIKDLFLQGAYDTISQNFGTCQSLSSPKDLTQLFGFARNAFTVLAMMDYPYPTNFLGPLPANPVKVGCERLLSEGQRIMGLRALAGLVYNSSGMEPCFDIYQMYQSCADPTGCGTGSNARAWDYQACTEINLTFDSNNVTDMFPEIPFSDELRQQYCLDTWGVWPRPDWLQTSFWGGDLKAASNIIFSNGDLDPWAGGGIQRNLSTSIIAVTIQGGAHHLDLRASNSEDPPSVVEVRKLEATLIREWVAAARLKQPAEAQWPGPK
Sequence of Dipeptidyl peptidase 8 (Q6V1X1 whole entry): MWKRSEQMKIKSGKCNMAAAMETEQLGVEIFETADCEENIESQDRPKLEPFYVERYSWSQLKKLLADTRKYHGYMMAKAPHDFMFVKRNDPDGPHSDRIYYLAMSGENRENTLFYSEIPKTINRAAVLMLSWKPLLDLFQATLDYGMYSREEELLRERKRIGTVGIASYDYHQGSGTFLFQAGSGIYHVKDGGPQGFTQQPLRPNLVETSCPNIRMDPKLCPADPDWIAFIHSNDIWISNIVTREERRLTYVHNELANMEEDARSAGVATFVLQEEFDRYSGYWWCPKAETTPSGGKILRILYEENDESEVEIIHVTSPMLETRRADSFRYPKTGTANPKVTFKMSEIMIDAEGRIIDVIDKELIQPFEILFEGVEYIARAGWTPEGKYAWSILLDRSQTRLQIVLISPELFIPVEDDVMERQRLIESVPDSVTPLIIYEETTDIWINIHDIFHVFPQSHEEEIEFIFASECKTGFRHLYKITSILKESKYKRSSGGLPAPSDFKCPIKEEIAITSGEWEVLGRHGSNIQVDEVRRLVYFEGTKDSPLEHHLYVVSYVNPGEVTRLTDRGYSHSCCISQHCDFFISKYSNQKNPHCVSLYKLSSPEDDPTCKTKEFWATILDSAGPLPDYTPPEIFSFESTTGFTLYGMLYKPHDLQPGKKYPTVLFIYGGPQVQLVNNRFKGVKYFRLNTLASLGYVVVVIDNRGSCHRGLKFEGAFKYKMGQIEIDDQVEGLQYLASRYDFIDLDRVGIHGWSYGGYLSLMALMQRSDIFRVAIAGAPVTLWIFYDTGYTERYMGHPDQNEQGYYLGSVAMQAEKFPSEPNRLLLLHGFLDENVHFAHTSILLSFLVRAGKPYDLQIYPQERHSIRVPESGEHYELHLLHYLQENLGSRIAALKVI

`Cc1ccc(-c2c(CC(=O)N3CCC[C@H]3C(N)=O)c(C)nc(CC(C)C)c2CN)cc1.Cl.Cl`: the IC50 was more than 100 µM against Dipeptidyl peptidase 2 and more than 30 µM at Dipeptidyl peptidase 8. The same molecule had an inhibition in vivo at 0.5 mg/kg in the series with Canis familiaris [1] of 90%. The MRT in series [2] is 11.2 h; in series [3] it was 4.35 h. Besides, the bioavailability in series [4] is 4.9%; in [5], 21.3%. The Stability was less than 1 µL/min in [6], 2 µL/min in [7] and 4 µL/min in [8]. Also, the solubility at 2 h in series [9] amounted to 86 µg/mL; in [10], 71 µg/mL. Also, the inhibition result in the series filed under Canis familiaris [11] is “Active”.
